Results from US12139815B2, “Methods for rapid detection of immunogenic epitopes in biothreat agents and emerging pathogens for peptide vaccines and therapeutics” (priority 2021, dated 2024).

Tested on: antibodies from sera of mice immunized with Ft-ΔclpB
Type: binding, mouse

For DNTTIIDGAGEK [SEQ ID NO: 7], the “enrichment in Experiment samples relative to Control samples (in words)” value was “enriched”.

In the case of “EGVITVEEGK (listed as Francisella tularensis) [SEQ ID NO: 8]”, the “enrichment in Experiment samples relative to Control samples (in words)” value is reported as “enriched”.
